Experimental findings from ChEMBL document CHEMBL1123809, “Amplification of bleomycin-mediated degradation of DNA” (J Med Chem, 1987) are described below.

The subject of this test is Nucleic Acid. The test can be described thus: Activity against DNA binding in calf thymus was determined. Conditions: Bos taurus. Type of test: nucleic-acid assay.
Turning to `CN(C)CCSc1nccc(-c2ccc(-c3ccnc(SCCN(C)C)n3)s2)n1`, the K was 1.3e+07 M⁻¹. In turn, `CN(C)CCNc1nccc(-c2cccs2)n1` had a K of 4400 M⁻¹. In turn, `CN(C)CCCN1C(=O)c2ccc3c4c(ccc(c24)C1=O)C(=O)N(CCCN(C)C)C3=O` registered a K greater than 1e+06 M⁻¹. Regarding `CC[n+]1c(-c2ccccc2)c2cc(N)ccc2c2ccc(N)cc21`, the K is 900000 M⁻¹. Take `CN(C)CCSc1nccc(-c2cccs2)n1`: the K came out at 18700 M⁻¹.
